Holding throughout (type): cell-based
Test [1] concerns the target T1, human prostanoid FP receptor (Homo sapiens, UniProt P43088).
T1 construct: expressed in transfected cells
In words: FLIPR Ca2+ signaling PG antagonist assay, FP stable cell line. The settings on record: HEK-293 EBNA cells, human recombinant FP, no exogenous G-protein; standard agonist 17-phenyl-PGF2α. Here is the method:
(§1) The above compounds were tested for PG antagonist activity as follows using human recombinant prostanoid receptor (DP1, EP1-4, FP, IP and TP) stable cell lines: In order to measure the response of Gs and Gi coupled prostanoid receptors as a Ca^2+ signal, chimeric G protein cDNAs were used. Stable cell lines over-expressing human prostanoid DP1, EP1-4, FP, IP, and TP receptors were established as follows:
(§2) Briefly, human prostanoid DP1, EP2, and EP4 receptor cDNAs were co-transfected with chimeric Gqs cDNA containing a haemagglutanin (HA) epitope; human prostanoid EP3 receptors were co-transfected with chimeric Gqi-HA; human EP1, FP, IP, and TP receptor cDNAs were expressed with no exogenous G-proteins. Gqs and Gqi chimeric cDNAs (Molecular Devices, Sunnyvale, Calif., U.S.A.), as well as cDNAs of prostanoid receptors, were cloned into a pCEP4 vector with a hygromycin B selection marker. Transfection into HEK-293 EBNA (Epstein-Barr virus nuclear antigen) cells was achieved by the FuGENE 6 transfection Reagent (Roche Applied Science, Indianapolis, Ind., USA). Stable transfectants were selected according to hygromycin resistance. Because Gqs and Gqi contained an HA epitope, G-protein expression was detected by Western blotting analysis using anti-mouse HA monoclonal antibody and horseradish peroxidase (HRP)-conjugated secondary antibody, while functional expression of prostanoid receptors was detected by FLIPR screening (Matias et al., 2004). These stable cell lines were validated using previously published antagonists at 10 μM against serial dilutions of standard agonists by FLIPR functional assays for Ca^2+ Signaling (as described below).
(§3) Ca^2+ signaling studies were performed using a FLIPR TETRA system (Molecular Devices, Sunnyvale, Calif., USA) in the 384-format. This is a high-throughput instrument for cell-based assays to monitor Ca^2+ signaling associated with GPCRs and ion channels. Cells were seeded at a density of 5×10^4 cells/well in BioCoat poly-D-lysine coated, black wall, clear bottom 384-well plates (BD Biosciences, Franklin lakes, NJ, USA) and allowed to attach overnight in an incubator at 37° C. The cells were then washed twice with HBSS-HEPES buffer (Hanks' balanced salt solution without bicarbonate and phenol red, 20 mM HEPES, pH 7.4) using an ELx405 Select CW Microplate Washer (BioTek, Winooski, Vt., USA). After 60 min of dye-loading in the dark using the Ca^2+-sensitive dye Fluo-4AM (Invitrogen, Carlsbad, Calif., USA), at a final concentration of 2×10^−6M, the plates were washed 4 times with HBSS-HEPES buffer to remove excess dye and leaving 50 μl of buffer in each well. The plates were then placed in the FLIPR TETRA instrument and allowed to equilibrate at 37° C. Compounds were added in a 25 μl volume to each well to give final concentrations of 0.1 μM, 0.3 μM, 1 μM, 3 μM, 10 μM, and 30 μM; or 0.067 μM, 0.1 μM, 0.2 μM, 0.3 μM, 0.67 μM, and 1 μM for cells over-expressing TP receptors. After 4.5 minutes, a 7-point serial dilution of the standard agonist for the corresponding receptor, in a 25 μl volume was injected at the final concentrations from 10^−11M to 10^−5M in 10-fold serial dilution increments for cells expressing human recombinant DP1, EP1, EP2, EP3, EP4, FP, and IP receptors. The dose range for the standard agonist for human recombinant TP receptors was from 10^−12M to 10^−6M. HBSS-HEPES buffer was used as the negative control for the standard agonists. Cells were excited with LED (light emitting diode) excitation at 470-495 nm and emission was measured through an emission filter at 515-575 nm. Assay plates were read for 3.5 minutes using the FLIPR^TETRA. The peak increase in fluorescence intensity was recorded for each well. On each plate, negative controls, dose response of positive controls, and co-treatments of antagonist-agonist for each dose were in triplicates. Standard agonists were as follows: DP=BW 245C, EP1-EP4=PGE2, FP=17-phenyl-PGF2α, IP=Cicaprost, and TP=U-46619. […]

Test [2] concerns the target T2, human prostanoid DP1 receptor (Homo sapiens, UniProt Q13258).
T2 construct: expressed in transfected cells
T2 sequence (Q13258 1-359): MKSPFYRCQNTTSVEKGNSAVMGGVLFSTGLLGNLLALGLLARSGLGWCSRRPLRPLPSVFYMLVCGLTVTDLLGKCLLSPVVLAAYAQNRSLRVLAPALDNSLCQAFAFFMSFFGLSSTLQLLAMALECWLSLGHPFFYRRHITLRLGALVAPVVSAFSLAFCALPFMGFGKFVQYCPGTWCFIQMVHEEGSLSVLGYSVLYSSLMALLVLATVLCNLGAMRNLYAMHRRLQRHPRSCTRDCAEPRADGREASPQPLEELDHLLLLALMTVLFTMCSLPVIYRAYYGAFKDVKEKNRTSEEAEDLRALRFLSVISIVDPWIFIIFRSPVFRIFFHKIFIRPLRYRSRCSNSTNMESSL
In words: FLIPR Ca2+ signaling PG antagonist assay, DP1 stable cell line. The settings on record: HEK-293 EBNA cells, human recombinant DP1 with chimeric Gqs; standard agonist BW 245C; read-out: DP (Kb, PG antagonist activity). As to the method: as §1, §2, §3

Test [3] addresses T3, human prostanoid IP receptor (Homo sapiens, UniProt P43119).
T3 construct: expressed in transfected cells
In words: FLIPR Ca2+ signaling PG antagonist assay, IP stable cell line. The settings on record: HEK-293 EBNA cells, human recombinant IP, no exogenous G-protein; standard agonist Cicaprost. As to the method: as §1, §2, §3

For test [4], the target named is T4, human prostanoid TP receptor (Homo sapiens, UniProt P21731).
T4 construct: expressed in transfected cells
T4 sequence (P21731 1-343): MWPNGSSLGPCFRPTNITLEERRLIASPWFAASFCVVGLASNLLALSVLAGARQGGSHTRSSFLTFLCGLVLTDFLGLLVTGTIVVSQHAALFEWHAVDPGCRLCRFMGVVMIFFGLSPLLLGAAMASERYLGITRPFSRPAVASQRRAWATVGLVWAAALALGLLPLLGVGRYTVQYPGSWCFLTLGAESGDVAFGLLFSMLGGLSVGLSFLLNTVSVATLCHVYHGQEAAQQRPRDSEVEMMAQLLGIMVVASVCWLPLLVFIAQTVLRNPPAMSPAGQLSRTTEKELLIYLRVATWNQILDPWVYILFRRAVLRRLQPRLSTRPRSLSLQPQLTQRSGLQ
The test is described as follows: FLIPR Ca2+ signaling PG antagonist assay, TP stable cell line. The settings on record: HEK-293 EBNA cells, human recombinant TP, no exogenous G-protein; standard agonist U-46619. Here is the method: as §1, §2, §3

The target of test [5] is T5, human prostanoid EP2 receptor (Homo sapiens, UniProt P43116).
T5 construct: expressed in transfected cells
The test is described as follows: FLIPR Ca2+ signaling PG antagonist assay, EP2 stable cell line. The settings on record: HEK-293 EBNA cells, human recombinant EP2 with chimeric Gqs; standard agonist PGE2. As to the method: as §1, §2, §3

T3 sequence (P43119 whole entry): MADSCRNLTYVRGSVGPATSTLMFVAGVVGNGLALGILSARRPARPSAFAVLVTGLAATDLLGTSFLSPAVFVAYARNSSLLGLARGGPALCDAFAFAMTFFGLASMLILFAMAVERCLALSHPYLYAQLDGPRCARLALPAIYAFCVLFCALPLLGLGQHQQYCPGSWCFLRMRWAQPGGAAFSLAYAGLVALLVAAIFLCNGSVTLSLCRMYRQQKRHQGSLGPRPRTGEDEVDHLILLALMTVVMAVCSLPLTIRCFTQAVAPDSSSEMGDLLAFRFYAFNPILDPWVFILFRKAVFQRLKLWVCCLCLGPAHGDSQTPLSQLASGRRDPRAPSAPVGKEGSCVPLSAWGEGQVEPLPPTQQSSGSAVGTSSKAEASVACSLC
T5 sequence (P43116 whole entry): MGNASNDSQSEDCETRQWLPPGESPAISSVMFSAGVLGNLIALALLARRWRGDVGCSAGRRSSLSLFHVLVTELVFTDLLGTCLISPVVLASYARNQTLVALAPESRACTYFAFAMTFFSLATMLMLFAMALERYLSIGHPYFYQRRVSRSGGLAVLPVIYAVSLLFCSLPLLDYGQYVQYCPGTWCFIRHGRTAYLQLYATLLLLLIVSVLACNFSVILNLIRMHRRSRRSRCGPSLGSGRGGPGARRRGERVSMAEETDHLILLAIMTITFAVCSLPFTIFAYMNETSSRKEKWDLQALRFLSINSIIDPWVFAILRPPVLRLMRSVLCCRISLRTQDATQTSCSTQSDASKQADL
T1 sequence (P43088 whole entry): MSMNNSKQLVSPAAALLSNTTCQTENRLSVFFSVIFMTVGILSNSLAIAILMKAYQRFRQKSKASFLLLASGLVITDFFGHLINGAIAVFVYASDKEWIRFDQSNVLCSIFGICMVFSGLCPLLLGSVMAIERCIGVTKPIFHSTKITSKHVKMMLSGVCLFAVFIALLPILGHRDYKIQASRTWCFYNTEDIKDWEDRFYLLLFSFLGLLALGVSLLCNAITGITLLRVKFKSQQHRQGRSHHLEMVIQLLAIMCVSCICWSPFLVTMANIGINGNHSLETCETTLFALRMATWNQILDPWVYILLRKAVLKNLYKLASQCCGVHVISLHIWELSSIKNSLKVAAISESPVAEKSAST

On to `CC(C)COc1ccc(Br)cc1Cn1ncc2ccc(C(=O)O)cc21` [Example 42, 1-(5-Bromo-2-Isobutoxy-Benzyl)-1H-Indazole-6-Carboxylic Acid], for which the antagonist equilibrium constant (Kb) in test [1] is 900 nM; in test [2] it was 160 nM; in test [3], 3400 nM; in test [4], 20 nM; in test [5], at least 10000 nM.

In the case of `CC(C)COc1ccc(Br)cc1Cn1ccc2cc(C(=O)O)cnc21` [Example 72, 1-(5-Bromo-2-Isobutoxy-Benzyl)-1H-Pyrrolo[2,3-B]Pyridine-5-Carboxylic Acid], the Kb in test [1] is 25 nM; in test [2] it was 1500 nM; in test [3], 2000 nM; in test [4] it was 3 nM; in test [5], at least 10000 nM.

Turning to `O=C(O)c1ccc2c(cnn2Cc2cc(Br)ccc2OCc2ccc(Cl)cc2)c1` [Example 13, 1-[5-Bromo-2-(4-Chloro-Benzyloxy)-Benzyl]-1H-Indazole-5-Carboxylic Acid], the Kb in test [1] came to 20 nM; in test [2], 1200 nM; in test [3], 600 nM; in test [4], 900 nM; in test [5], 1900 nM.

Regarding `CCC(CC)COc1ccc(Cl)cc1Cn1ncc2c(C(=O)O)cccc21` [Example 38, 1-[5-Chloro-2-(2-Ethyl-Butoxy)-Benzyl]-1H-Indazole-4-Carboxylic Acid], the antagonist dissociation constant (Kb) was determined as 1100 nM in test [1]; 630 nM in test [2]; 60 nM in test [3]; 3 nM in test [4]; 2100 nM in test [5].

As for `CC(C)COc1ccc(S(C)(=O)=O)cc1Cn1ncc2cc(C(=O)O)ccc21` [Example 48, 1-(2-Isobutoxy-5-Methanesulfonyl-Benzyl)-1H-Indazole-5-Carboxylic Acid], the Kb was at least 10000 nM in test [1]; at least 10000 nM in test [2]; at least 10000 nM in test [3]; 500 nM in test [4]; at least 10000 nM in test [5].

For the compound `CCC(CC)COc1ccc(Br)cc1Cn1cnc2cc(C(=O)O)ccc21` [Example 78, 1-[5-Bromo-2-(2-Ethyl-Butoxy)-Benzyl]-1H-Benzoimidazole-5-Carboxylic Acid], the Kb was 800 nM in test [1]; 3800 nM in test [2]; 3000 nM in test [3]; 16 nM in test [4]; at least 10000 nM in test [5].

With `Cc1nn(Cc2cc(Cl)ccc2OCC(C)C)c2ncc(C(=O)O)cc12` [Example 61, 1-(5-Chloro-2-Isobutoxy-Benzyl)-3-Methyl-1H-Pyrazolo[3,4-B]Pyridine-5-Carboxylic Acid], the antagonist equilibrium constant (Kb) in test [1] was 1500 nM; in test [2] it was 740 nM; in test [3] it was 1750 nM; in test [4], 300 nM; in test [5], at least 10000 nM.

As to `CC(C)COc1ccc(OC(F)(F)F)cc1Cn1ccc2cc(C(=O)O)ccc21` [Example 71, 1-(2-Isobutoxy-5-Trifluoromethoxy-Benzyl)-1H-Indole-5-Carboxylic Acid], the antagonist dissociation constant (Kb) is 120 nM in test [1]; at least 10000 nM in test [2]; at least 10000 nM in test [3]; 600 nM in test [4]; at least 10000 nM in test [5].

As to `CC(C)COc1ccc(OC(F)(F)F)cc1Cn1ncc2cc(C(=O)O)ccc21` [Example 20, 1-(2-Isobutoxy-5-Trifluoromethoxy-Benzyl)-1H-Indazole-5-Carboxylic Acid], the Kb is 13 nM in test [1]; 500 nM in test [2]; 2700 nM in test [3]; 50 nM in test [4]; at least 10000 nM in test [5].

`CC(C)(O)COc1ccc(Br)cc1Cn1ncc2cc(C(=O)O)ccc21` [Example 53, 1-[5-Bromo-2-(2-Hydroxy-2-Methyl-Propoxy)-Benzyl]-1H-Indazole-5-Carboxylic Acid]: the Kb in test [1] is 230 nM; in test [2] it was at least 10000 nM; in test [3] it was at least 10000 nM; in test [4] it was 1200 nM; in test [5], at least 10000 nM.

`CCC(CC)Oc1ccc(Br)cc1Cn1ncc2cc(C(=O)O)ccc21` [Example 51, 1-[5-Bromo-2-(1-Ethyl-Propoxy)-Benzyl]-1H-Indazole-5-Carboxylic Acid]: the antagonist equilibrium constant (Kb) in test [1] was 110 nM; in test [2], 600 nM; in test [3], 1100 nM; in test [4] it was 50 nM; in test [5] it was at least 10000 nM.

In the case of `O=C(O)c1ccc2c(cnn2Cc2cc(Cl)ccc2OCc2ccc(Cl)cc2)c1` [Example 9, 1-[5-Chloro-2-(4-Chloro-Benzyloxy)-Benzyl]-1H-Indazole-5-Carboxylic Acid], the Kb in test [1] is 20 nM; in test [2] it was 1200 nM; in test [3], 1350 nM; in test [5], 3200 nM. Also, the “TP (Kb, PG antagonist activity)” value in test [4] is given as “PAgonist”.

Consider `CCC(CC)COc1ccc(Cl)cc1Cn1ncc2cc(C(N)=O)ncc21` [Example 62, 1-[5-Chloro-2-(2-Ethyl-Butoxy)-Benzyl]-1H-Pyrazolo[3,4-C]Pyridine-5-Carboxylic Acid Amide], for which the Kb was at least 10000 nM in test [1]; 5800 nM in test [2]; at least 10000 nM in test [3]; at least 10000 nM in test [4]; at least 10000 nM in test [5].

With `CC(C)COc1c(F)cc(Cl)cc1Cn1ncc2cc(C(=O)O)ccc21` [Example 47, 1-(5-Chloro-3-Fluoro-2-Isobutoxy-Benzyl)-1H-Indazole-5-Carboxylic Acid], the Kb was 4700 nM in test [1]; 700 nM in test [2]; 4800 nM in test [3]; at least 10000 nM in test [4]; at least 10000 nM in test [5].

In general, Kb refers to the equilibrium dissociation constant of an antagonist, usually derived from a functional assay.
